{"source": "patent US12138320B2", "about": "“Composition and methods for tumor imaging and treatment” (The University of Chicago, priority 2020, dated 2024)", "key": {"[1]": {"test": "Radiochemical stability by radioactive HPLC", "format": "physicochemical", "details": "physiologic buffers; PBS containing 10% ethanol, up to 120 min", "description": "Stability analyses of HPLC-purified […]: Radiochemical stability testing of the synthesized [^18F]JW199, was performed with multiple HPLC injections using increasing amounts of activity to keep the peak heights roughly similar. 64 μCi was injected 83 minutes post synthesis, and this was considered the t=0 time point. The subsequent injection was 79 μCi at 30-minutes, followed by three more injections of 86, 106, and 117 μCi at 60, 90, and 120-minutes respectively."}, "[2]": {"system": "MDA-MB231 human breast cancer xenografts", "test": "PET/CT imaging and ex vivo biodistribution in mice bearing MDA-MB231 xenografts", "set-up": "species or system mouse", "description": "In vivo microPET/CT imaging: All imaging was performed by the Integrated Small Animal Imaging Research Resource (iSAIRR) at the University of Chicago (Chicago, Illinois, United States of America) on a β-Cube and X-Cube (Molecubes NV, Ghent, Belgium). Athymic nude mice (males and females, aged 6 to 8 weeks; HSD strain, Harlan-Envigo, Indianapolis, Indiana, United States of America) were anesthetized via inhalation with 1.5-2% isoflurane and injected with approximately 150 μCi (5.55 Megabecquerel (MBq)) of [^18F]JW199 in 150 μL of physiologic saline through the lateral tail vein, followed by awake incubation for 1 hour and 45 minutes. MicroCT images were acquired using the general purpose protocol, with energy of 50 KeV and a tube current of 100 μA. Respiration rate and body temperature of the animal were constantly monitored during the entire scanning period with the p-Cube and X-Cube onboard monitoring system. […]\nDynamic reconstruction was performed using a three-dimensional OSEM algorithm with 400 μm isometric voxel size. […] 3D regions of interest (ROIs) were drawn and standardized uptake values (SUVs) and percent injected dose per cubic centimeter of tissue (% ID/cc) were calculated for each ROI and time point. % ID/cc was calculated as a ratio of tissue radioactivity concentration (mCi/g) at time of scan to total injected activity (millicurie (mCi)) at time of scan. […]"}}}
{"molecule": "CC(C)c1ccccc1OC(=O)NCCc1ccc(OCC[18F])cc1", "note": "[[^18F]JW199, fluorine-18-labeled 2-isopropylphenyl-(4-(2-fluoroethoxy)phenethyl)carbamate]", "values": [{"measurement": "chemical stability", "setting": "[1]", "result": "chemically stable"}, {"measurement": "radiotracer accumulation in tumor", "setting": "[2]; 150 μCi i.v., dynamic PET/CT", "result": "radiotracer accumulation in breast tumor xenograft cells"}, {"measurement": "total radioactivity in bulk tumor tissue relative to surrounding muscle", "setting": "[2]; ex vivo quantitation, 3 hours after injection, breast cancer model", "result": "higher total radioactivity"}]}
